The pIC50 is −log10 of the IC50, conventionally taken in molar units.

The record followed here is patent publication US10766903B2 (ALMAC DISCOVERY LIMITED, priority 2016, dated 2020).

pIC50: −log10 of the molar value.

For the first assay, the target named is USP7 (Homo sapiens (Human), UniProt Q93009). The assay is described as follows: USP7 fluorescence polarisation (FP) biochemical assay, ubiquitin-Lys-TAMRA substrate. As to conditions: Table 4, biochemical assay; average of at least duplicate experiments; read-out: USP7 IC50. As to the method: Measurement of USP7 Inhibitory Activity
USP7, sequence (Q93009 whole entry): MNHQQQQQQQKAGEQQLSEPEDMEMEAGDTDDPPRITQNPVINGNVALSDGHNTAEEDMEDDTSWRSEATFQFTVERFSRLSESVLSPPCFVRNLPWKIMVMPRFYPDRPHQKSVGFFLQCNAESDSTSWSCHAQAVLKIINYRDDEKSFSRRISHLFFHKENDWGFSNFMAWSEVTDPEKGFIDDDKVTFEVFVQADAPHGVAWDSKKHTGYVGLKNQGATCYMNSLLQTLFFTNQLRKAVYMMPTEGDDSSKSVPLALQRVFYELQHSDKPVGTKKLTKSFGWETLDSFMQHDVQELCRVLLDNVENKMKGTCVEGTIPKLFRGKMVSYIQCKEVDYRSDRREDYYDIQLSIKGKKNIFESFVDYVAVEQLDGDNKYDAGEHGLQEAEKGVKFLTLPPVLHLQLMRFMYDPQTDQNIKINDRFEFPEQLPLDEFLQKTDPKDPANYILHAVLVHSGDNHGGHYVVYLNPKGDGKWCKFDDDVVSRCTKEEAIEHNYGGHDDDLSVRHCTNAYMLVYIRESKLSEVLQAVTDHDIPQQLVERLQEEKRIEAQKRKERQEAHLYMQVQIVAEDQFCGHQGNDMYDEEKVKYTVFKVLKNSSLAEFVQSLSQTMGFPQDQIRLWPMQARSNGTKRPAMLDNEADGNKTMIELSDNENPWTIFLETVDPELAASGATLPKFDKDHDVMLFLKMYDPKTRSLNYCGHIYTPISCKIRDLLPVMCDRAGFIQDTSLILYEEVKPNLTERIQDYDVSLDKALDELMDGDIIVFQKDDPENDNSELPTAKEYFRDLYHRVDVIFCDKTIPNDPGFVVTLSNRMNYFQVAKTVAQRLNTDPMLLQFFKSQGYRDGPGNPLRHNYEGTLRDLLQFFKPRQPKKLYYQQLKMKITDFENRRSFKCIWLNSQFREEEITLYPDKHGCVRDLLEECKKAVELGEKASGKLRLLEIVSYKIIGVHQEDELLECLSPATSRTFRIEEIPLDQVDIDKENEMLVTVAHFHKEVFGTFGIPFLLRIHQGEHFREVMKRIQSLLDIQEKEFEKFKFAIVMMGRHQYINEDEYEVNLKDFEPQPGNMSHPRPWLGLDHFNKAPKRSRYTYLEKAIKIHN
USP7 activity was monitored in a fluorescence polarisation (FP) homogeneous assay using the isopeptide ubiquitin-Lys-TAMRA substrate (U-558, Boston Biochem). Full-length USP7 was purchased from Boston Biochem (His6-USP7FL, E-519). Unless otherwise stated, all other reagents were purchased from Sigma-Aldrich. Enzymatic reactions were conducted in black flat-bottom polystyrene 384-well plates (Nunc) and 15 μL total volume. USP7 (2.5 nM, 5 μL) was incubated in assay buffer (50 mM HEPES (pH 7.2), 150 mM NaCl, 0.5 mM EDTA, 5 mM DTT, 0.05% BSA (w/v), 0.05% CHAPS) in the presence or absence of inhibitor (5 μl). Inhibitors were stored as 10 mM DMSO stocks in an inert environment (low humidity, dark, low oxygen, room temperature) using a Storage Pod System and serial dilutions were prepared in buffer just prior to the assay (from 200 to 0.1 μM, 8 dp curve). […] FP was measured every 15 min over a period of 1.5 h (within the linear range of the assay) using a Synergy 4 plate reader (BioTek) exciting at 530 nm and measuring the amount of parallel and perpendicular light at 575 nm. The FP signal was subsequently normalised to the control without compound present.
For orientation: In fluorescence polarisation assays a small probe gives low polarisation when free and higher when bound to something large.
On to `Cn1nccc1-c1cccc(-n2c(Cl)cc3c(=O)n(CC4(O)CCN(C(=O)C5(C)CC5)CC4)cnc32)c1` [Example 208, 6-Chloro-3-((4-hydroxy-1-(1-methylcyclopropanecarbonyl)piperidin-4-yl)methyl)-7-(3-(1-methyl-1H-pyrazol-5-yl)phenyl)-3H-pyrrolo[2,3-d]pyrimidin-4(7H)-one], for which the pIC50 was 6.00 to 6.60.

As for `C[C@H](CC(=O)N1CCC(O)(Cn2cnc(N3CCC[C@H](N(C)C)C3)cc2=O)CC1)c1ccccc1` [Example 50, 6-((S)-3-(Dimethylamino)piperidin-1-yl)-3-((4-hydroxy-1-((R)-3-phenylbutanoyl)piperidin-4-yl)methyl)pyrimidin-4(3H)-one], the pIC50 is greater than 6.60. Take `C[C@H](CC(=O)N1CCC(O)(Cn2cnc(/C=C/CN3CC[C@@H](N)C3)cc2=O)CC1)c1ccccc1` [Example 55, 6-((E)-3-((R)-3-Aminopyrrolidin-1-yl)prop-1-en-1-yl)-3-((4-hydroxy-1-((R)-3-phenylbutanoyl)piperidin-4-yl)methyl)pyrimidin-4(3H)-one, Formic Acid]: the pIC50 was 3.70 to 6.00. On the same count and under the same terms, in the case of `C[C@H](CC(=O)N1CCC(O)(Cn2cnc3c(-c4cccc(C(=O)O)c4)n(C)nc3c2=O)CC1)c1ccccc1` [Example 244, (R)-3-(6-((4-Hydroxy-1-(3-phenylbutanoyl)piperidin-4-yl)methyl)-2-methyl-7-oxo-6,7-dihydro-2H-pyrazolo[4,3-d]pyrimidin-3-yl)benzoic Acid] it was 3.70 to 6.00. Turning to `Cn1nc2c(=O)n(CC3(O)CCN(C(=O)OCc4ccccc4)CC3)cnc2c1-c1ccc(CN)cc1` [Example 112, Benzyl 4-((3-(4-(aminomethyl)phenyl)-2-methyl-7-oxo-2,7-dihydro-6H-pyrazolo[4,3-d]pyrimidin-6-yl)methyl)-4-hydroxypiperidine-1-carboxylate], the negative-log IC50 (pIC50) is 3.70 to 6.00. Regarding `CC1(C(=O)N2CCC(O)(Cn3cnc4c(cc(Br)n4-c4ccccc4)c3=O)CC2)CC1` [Example 223, 6-Bromo-3-((4-hydroxy-1-(1-methylcyclopropanecarbonyl)piperidin-4-yl)methyl)-7-phenyl-3H-pyrrolo[2,3-d]pyrimidin-4(7H)-one], the pIC50 is greater than 6.60.

`C[C@H](N)c1ccc(-c2c3ncn(CC4(O)CCN(C(=O)C[C@H](c5ccccc5)C(F)(F)F)CC4)c(=O)c3nn2C)cc1` [Example 76, 3-(4-((S)-1-Aminoethyl)phenyl)-6-((4-hydroxy-1-((R)-4,4,4-trifluoro-3-phenylbutanoyl)piperidin-4-yl)methyl)-2-methyl-2H-pyrazolo[4,3-d]pyrimidin-7(6H)-one]: the pIC50 is greater than 6.60. `Cn1nc2c(=O)n(CC3(O)CCN(C(=O)C[C@H](c4ccccc4)C(F)(F)F)CC3)cnc2c1-c1ccc([C@H](N)C(F)(F)F)cc1` [Example 119, 3-(4-((S)-1-Amino-2,2,2-trifluoroethyl)phenyl)-6-((4-hydroxy-1-((R)-4,4,4-trifluoro-3-phenylbutanoyl)piperidin-4-yl)methyl)-2-methyl-2H-pyrazolo[4,3-d]pyrimidin-7(6H)-one]: the pIC50 was greater than 6.60. On to `Cn1cc(-c2cccc(-n3c(Cl)cc4c(=O)n(CC5(O)CCN(C(=O)c6cnc(C7CC7)o6)CC5)cnc43)c2)cn1` [Example 211, 6-Chloro-3-((1-(2-cyclopropyloxazole-5-carbonyl)-4-hydroxypiperidin-4-yl)methyl)-7-(3-(1-methyl-1H-pyrazol-4-yl)phenyl)-3H-pyrrolo[2,3-d]pyrimidin-4(7H)-one], for which the negative logarithm of the IC50 (pIC50) was greater than 6.60. Turning to `CC1(C(=O)N2CCC(O)(Cn3cnc4c(cc(Cl)n4-c4ccc(CN)cc4)c3=O)CC2)CC1` [Example 241, 7-(4-(Aminomethyl)phenyl)-6-chloro-3-((4-hydroxy-1-(1-methylcyclopropane-1-carbonyl)piperidin-4-yl)methyl)-3,7-dihydro-4H-pyrrolo[2,3-d]pyrimidin-4-one], the pIC50 was greater than 6.60. For `C[C@H](CC(=O)N1CCC(O)(Cn2cnc3c(nc(C(F)(F)F)n3C)c2=O)CC1)c1ccccc1` [Example 96, (R)-1-((4-Hydroxy-1-(3-phenylbutanoyl)piperidin-4-yl)methyl)-9-methyl-8-(trifluoromethyl)-1H-purin-6(9H)-one], the negative logarithm of the IC50 (pIC50) was 3.70 to 6.00. As to `C[C@H](CC(=O)N1CCC(O)(Cn2cnc3c(nnn3-c3ccccc3)c2=O)CC1)c1ccccc1` [Example 185, (R)-6-((4-Hydroxy-1-(3-phenylbutanoyl)piperidin-4-yl)methyl)-3-phenyl-3H-[1,2,3]triazolo[4,5-d]pyrimidin-7(6H)-one], the negative logarithm of the IC50 (pIC50) is greater than 6.60. As for `O=C(c1cnc(C2CC2)o1)N1CCC(O)(Cn2cnc3c(cc(Br)n3-c3ccccc3)c2=O)CC1` [Example 222, 6-Bromo-3-((1-(2-cyclopropyloxazole-5-carbonyl)-4-hydroxypiperidin-4-yl)methyl)-7-phenyl-3H-pyrrolo[2,3-d]pyrimidin-4(7H)-one], the negative logarithm of the IC50 (pIC50) is greater than 6.60.

Turning to `C[C@H](CC(=O)N1CCC(O)(Cn2cnc(N3CCC(O)CC3)cc2=O)CC1)c1ccccc1` [Example 144, (R)-3-((4-hydroxy-1-(3-phenylbutanoyl)piperidin-4-yl)methyl)-6-(4-hydroxypiperidin-1-yl)pyrimidin-4(3H)-one], the pIC50 was 3.70 to 6.00. Consider `C[C@H](CC(=O)N1CCC(O)(Cn2cnc(N[C@@H]3CCNC3)cc2=O)CC1)c1ccccc1` [Example 110, 3-((4-Hydroxy-1-((R)-3-phenylbutanoyl)piperidin-4-yl)methyl)-6-(((R)-pyrrolidin-3-yl)amino)pyrimidin-4(3H)-one], for which the pIC50 is 6.00 to 6.60. Turning to `Cn1nc2c(=O)n(CC3(O)CCN(C(=O)c4cnc(C5CC5)o4)CC3)cnc2c1-c1ccc(CN)cc1` [Example 238, 3-(4-(Aminomethyl)phenyl)-6-((1-(2-cyclopropyloxazole-5-carbonyl)-4-hydroxypiperidin-4-yl)methyl)-2-methyl-2,6-dihydro-7H-pyrazolo[4,3-d]pyrimidin-7-one], the pIC50 is 6.00 to 6.60.

For the compound `Cn1nccc1-c1cc(-n2c(Cl)cc3c(=O)n(CC4(O)CCN(C(=O)c5cnc(C6CC6)o5)CC4)cnc32)ccc1F` [Example 230, 6-Chloro-3-((1-(2-cyclopropyloxazole-5-carbonyl)-4-hydroxypiperidin-4-yl)methyl)-7-(4-fluoro-3-(1-methyl-1H-pyrazol-5-yl)phenyl)-3H-pyrrolo[2,3-d]pyrimidin-4(7H)-one], the pIC50 was 6.00 to 6.60. Turning to `CNCc1ccc(-c2c3ncn(CC4(O)CCN(C(=O)C[C@H](c5ccccc5)C(F)(F)F)CC4)c(=O)c3nn2C)cc1` [Example 83, (R)-6-((4-Hydroxy-1-(4,4,4-trifluoro-3-phenylbutanoyl)piperidin-4-yl)methyl)-2-methyl-3-(4-((methylamino)methyl)phenyl)-2H-pyrazolo[4,3-d]pyrimidin-7(6H)-one], the pIC50 is greater than 6.60. Consider `O=C(CCC1CCC1)N1CCC(O)(Cn2cnc3c(nnn3-c3ccccc3)c2=O)CC1` [Example 186, 6-((1-(3-Cyclobutylpropanoyl)-4-hydroxypiperidin-4-yl)methyl)-3-phenyl-3H-[1,2,3]triazolo[4,5-d]pyrimidin-7(6H)-one], for which the pIC50 was 3.70 to 6.00.

The assay is the same for the next values; noted with them: USP7 IC50, Table 3, effect of the R2 substituent.
For `C[C@H](CC(=O)N1CCC(O)(Cn2cnc3c(C(F)(F)F)n(C)nc3c2=O)CC1)c1ccccc1` [Example 23, (R)-6-((4-Hydroxy-1-(3-phenylbutanoyl)piperidin-4-yl)methyl)-2-methyl-3-(trifluoromethyl)-2H-pyrazolo[4,3-d]pyrimidin-7(6H)-one], the pIC50 was 6.22.

The assay is the same for the next values; noted with them: USP7 IC50, Table 4, biochemical assay; average of at least duplicate experiments.
On to `C[C@H](CC(=O)N1CCC(O)(Cn2cnc3c(C(F)(F)F)n(C)nc3c2=O)CC1)c1ccccc1` [Example 23, (R)-6-((4-Hydroxy-1-(3-phenylbutanoyl)piperidin-4-yl)methyl)-2-methyl-3-(trifluoromethyl)-2H-pyrazolo[4,3-d]pyrimidin-7(6H)-one], for which the pIC50 was 6.00 to 6.60.
